Assay results taken from patent publication US20190254992A1, “COMBINATIONS OF BETA-GLYCOLIPIDES AND 4-[(2-AMINO-3,5-DIBROMOPHENYL)METHYLAMINO]CYCLOHEXAN-1-OL, COMPOSITIONS AND USES THEREOF IN THE TREATMENT OF DISORDERS ASSOCIATED WITH PROTEIN MISFOLDING AND PROTEIN AGGREGATIONS” (HADASIT MEDICAL RESEARCH SERVICES & DEVELOPMENT LIMITED, priority 2016, published 2019).

Experiments:
alpha-synuclein = settings: neuroblastoma line engineered to overexpress alpha-synuclein; cited from earlier work
[1] = tested on: serum cytokines (IL-1α, IL-4, IFN-γ, IL-6); assay: Serum cytokine measurement (MILLIPLEX/Luminex) in ConA immune-mediated hepatitis mice; format: in vivo, C57Bl/6 mice; settings: oral, daily for 5 days, ConA-injected mice; for serum IL-1a: control group A 206.5; for serum IL-6: control group A 11768
Procedure: Male C57Bl/6 mice (12 weeks old) were obtained from Harlan Laboratories (Jerusalem, Israel) and maintained in the Animal Core of the Hadassah-Hebrew University Medical School. Mice were kept at 11-12 weeks of age and maintained in the Animal Core of the Hadassah-Hebrew University Medical School. All mice were administered standard laboratory chow and water ad libitum and kept in a 12-hour light/dark cycle. All experiments were performed in accordance with the guidelines of the Hebrew University-Hadassah Institutional Committee for Care and Use of Laboratory Animals (IACUC protocol number: MD-16-14986-3).
Four groups of mice (n=4) were studied. Mice in all groups were injected with Concanavalin A (Con A, […]). Mice in control group A were treated with PBS. Mice in group B were orally administered 6 mg of GC, per mouse daily for 5 days prior to ConA injection.
Cytokine assessment was performed by MILLIPLEX® Analytes (EMD Millipore Corporation, Missouri 63304 U.S.A.) based on the Luminex xMAP® technology for performing immunoassays on the surface of fluorescent-coded magnetic beads MagPlex®-C microspheres. Acquiring and analyzing the data were performed using the Luminex analyzer (MAGPIX®) software. Cytokines assessment was measured by mean fluorescence intensity (MFI).

glucosylceramidase = settings: fibroblasts from healthy controls, Gaucher patients, heterozygous GBA mutation with and without Parkinson's disease; cited from earlier work
type 3 neuropathic GD = settings: high doses, cited from earlier work
[2] = tested on: non-neuronopathic form of GD; settings: patients with non-neuronopathic GD; cited from earlier work
[3] = tested on: immune-mediated liver injury; assay: Serum liver enzymes (ALT, AST) in ConA immune-mediated hepatitis mice; format: in vivo, C57Bl/6 mice; settings: oral, daily for 5 days, ConA-injected mice; for AST levels: control group A 9140; for ALT levels: control group A 24040
Procedure: Male C57Bl/6 mice (12 weeks old) were obtained from Harlan Laboratories (Jerusalem, Israel) and maintained in the Animal Core of the Hadassah-Hebrew University Medical School. Mice were kept at 11-12 weeks of age and maintained in the Animal Core of the Hadassah-Hebrew University Medical School. All mice were administered standard laboratory chow and water ad libitum and kept in a 12-hour light/dark cycle. All experiments were performed in accordance with the guidelines of the Hebrew University-Hadassah Institutional Committee for Care and Use of Laboratory Animals (IACUC protocol number: MD-16-14986-3). Four groups of mice (n=4) were studied. Mice in all groups were injected with Concanavalin A (Con A, […]). Mice in control group A were treated with PBS. Mice in group B were orally administered 6 mg of GC, per mouse daily for 5 days prior to ConA injection. […] Serum aspartate aminotransferase (AST) and alanine aminotransferase (ALT) levels were determined with an automatic analyzer on all mice in all groups.

Compound | alpha-synuclein levels (alpha-synuclein) | IFN-γ change (in words) [1] | serum IL-1a [1] | serum IL-6 [1] | glucosylceramidase activity (glucosylceramidase) | markers of oxidative stress (glucosylceramidase) | subjective-functional scores and objective scores (VEP, ocular movements) (type 3 neuropathic GD; 5 individuals with type 3 neuropathic GD) | GCase activity in lymphocytes (type 3 neuropathic GD; type 3 neuropathic GD patients) | clinical outcome of ambroxol treatment [2] | AST levels [3] | ALT levels [3] | IFN-γ ([1]; control group A 643)
Nc1c(Br)cc(Br)cc1CN[C@H]1CC[C@H](O)CC1 [Ambroxol, trans-4-(2-Amino-3,5-dibrombenzylamino)-cyclohexanol] | reduces | did not show any decrease | 131 pg/mL | 9504 pg/mL | increased | reduced | substantial clinical improvement | Increased | disease stability | 8516 IU | 16455 IU | 
B-glucosylceramide [GC] |  |  | 48 pg/mL | 984 pg/mL |  |  |  |  |  | 2939 IU | 4198 IU | 36 pg/mL
